# Source: patent publication US5847159A, “1-[ω-(3,4-dihydro-2-naphthalenyl)alkyl]-cyclic amine derivatives, process for preparing the same, and pharmaceutical composition containing the same” (priority 1995, dated 1998)
# Where a name gives a salt, the structure may show the parent alone.
# Tested on: rhythmic bladder contractions (micturition reflex)
# Experiment: Inhibitory effect on rhythmic bladder contractions (micturition reflex)
# Assay type: in vivo, Female Std-Wistar rats
# Details: i.d., rat; for inhibition in vivo at 10 mg/kg / inhibition in vivo at 30 mg/kg: intraduodenal, mean over two hours, read-out: Inhibitory rate on contractile frequency; for inhibition in vivo at 10 mg/kg / inhibition in vivo at 30 mg/kg / ED50: 2 h; for ED50: two hours, read-out: ED50, inhibitory effect on contractile frequency; for Potency on frequency of rhythmic bladder contractions relative to inaperisone hydrochloride (Compound A): compared with Compound A
# Experimental: Inhibitory effect on rhythmic bladder contractions (micturition reflex)
# The experiment was carried out according to the method of Maggi, C. […] It is generally accepted that the rhythmic bladder contractions evoked by instillation of saline solution into the bladder are mediated via the micturition reflex pathway like that of natural urination.
# Female Std-Wistar rats weighing 160-190 g were used in groups of 3-4 animals. Under urethane anesthesia (1 g/kg, s.c.), both ureters were tied and cut at the side of kidney after a mid line incision of the abdomen. A cannula, connected to a syringe and a pressure transducer, was inserted into the bladder via the external urethral orifice and ligated around the proximal urethra. The animal was allowed to stay for about 30 minutes after the operation. The bladder was slowly filled with warm saline solution (0.4-1 ml) by means of a syringe until rhythmic contractions were induced. The change of the intravesical pressure was recorded on a recorder via a pressure transducer. After the rhythmic contractions became constant, test compounds dissolved or suspended in 0.5% aqueous tragacanth solution were administered via the cannula inserted for intraduodenal administration. The effect of each compound on the contractile frequency was investigated every 15 minutes till two hours after the administration.
# The inhibitory rate on the contractile frequency (two hours) was expressed as the mean value of the inhibitory rates at an every 15-minute interval for two hours after the administration, which was determined based on the contractile frequency for 15 minutes before the administration.
Compound,inhibition in vivo at 10 mg/kg [%],Effect on the amplitude of contraction,also measured
Fc1ccc(F)c2c1C=C(CCN1CCCC1)CC2 [Ex. 55],43,,
"Cc1cc2c(cc1CO)CCC(CCN1CCCC1)=C2 [Ex. 72, 1-[2-(3,4-dihydro-6-hydroxymethyl-7-methyl-2-naphthalenyl)ethyl]pyrrolidin]",49,suppressed the amplitude of contraction,
Fc1ccc2c(c1)C=C(CCN1CCCCC1)CC2 [Ex. 13],,,inhibition in vivo at 30 mg/kg: 77%
"COc1ccc2c(c1)C=C(CCN1CCCC1)CC2 [Ex. 58, 1-[2-(3,4-dihydro-7-methoxy-2-naphthalenyl)ethyl]-pyrrolidine]",34,,
C1=C(CCN2CCCC2)CCc2cc3c(cc21)CCC3 [Ex. 47],37,,
"Cc1cc2c(cc1C)CCC(CCN1C(C)CCC1C)=C2 (centres unmarked) [Ex. 50, 1-[2-(3,4-dihydro-6,7-dimethyl-2-naphthalenyl)ethyl]-2,5-dimethylpyrolidin]",50,suppressed the amplitude of contraction,
Clc1ccc2c(c1)C=C(CCN1CCCC1)CC2 [Ex. 15],44,,
Cc1cccc2c1CCC(CCN1CCCCC1)=C2 [Ex. 18],,,inhibition in vivo at 30 mg/kg: 51%
"Cc1cc2c(cc1C(=O)O)CCC(CCN1CCCC1)=C2 [Ex. 74, 1-[2-(6-carboxy-3,4-dihydro-7-methyl-2-naphthalenyl)-ethyl]pyrrolidine]",42,,
"COC(=O)c1ccc2c(c1)C=C(CCN1CCCC1)CC2 [Ex. 56, 1-[2-(3,4-Dihydro-7-methoxycarbonyl-2-naphthalenyl)ethyl]pyrrolidine]",34,suppressed the amplitude of contraction,
C1=C(CCCCN2CCCCC2)CCc2ccccc21 [Ex. 6],42,,
COc1cccc2c1CCC(CCCCCN1CCCCC1)=C2 [Ex. 32],47,,
Cc1cc2c(cc1C)CCC(CCN1CCCCCC1)=C2 [Ex. 44],34,,
Fc1ccc2c(c1)CCC(CCN1CCCC1)=C2 [Ex. 10],33,,
C1=C(CCCCN2CCCC2)CCc2ccccc21 [Ex. 4],,suppressed the amplitude of contraction,ED50: 11.4 mg/kg; Potency on frequency of rhythmic bladder contractions relative to inaperisone hydrochloride (Compound A): ~3 times more potent
COc1cccc2c1CCC(CCN1CCCCC1)=C2 [Ex. 26],,suppressed the amplitude of contraction,ED50: 29.1 mg/kg
Cc1cc2c(cc1C)CCC(CCN1CCC1)=C2 [Ex. 41],38,suppressed the amplitude of contraction,
Clc1cccc2c1CCC(CCN1CCCC1)=C2 [Ex. 14],49,,

Compound,inhibition in vivo at 10 mg/kg [%],Effect on the amplitude of contraction,also measured
"COc1cc2c(cc1C)CCC(CCN1CCCC1)=C2 [Ex. 68, 1-[2-(3,4-dihydro-7-methoxy-6-methyl-2-naphthalenyl)ethyl]pyrrolidine]",,suppressed the amplitude of contraction,ED50: 7.4 mg/kg; Potency on frequency of rhythmic bladder contractions relative to inaperisone hydrochloride (Compound A): ~4.7 times more potent
Fc1ccc2c(c1F)CCC(CCN1CCCC1)=C2 [Ex. 54],43,,
Cc1cc2c(cc1C)CCC(CCN1CCCCCCC1)=C2 [Ex. 45],48,,
Fc1cccc2c1CCC(CCN1CCCCC1)=C2 [Ex. 8],,,inhibition in vivo at 30 mg/kg: 62%
"OC1CCN(CCC2=Cc3ccccc3CC2)C1 (centres unmarked) [Ex. 60, 1-[2-(3,4-Dihydro-2-naphthalenyl)ethyl]-3-hydroxypyrrolidine hydrochloride]",33,,
"COc1cc2c(cc1OC)CCC(CCN1CCCC1)=C2 [Ex. 62, 1-[2-(3,4-dihydro-6,7-dimethoxy-2-naphthalenyl)ethyl]-pyrrolidine]",,suppressed the amplitude of contraction,ED50: 6.1 mg/kg; Potency on frequency of rhythmic bladder contractions relative to inaperisone hydrochloride (Compound A): approximately 5.7 times more potent
Fc1ccc2c(c1)C=C(CCN1CCCC1)CC2 [Ex. 12],35,suppressed the amplitude of contraction,
"CCc1cc2c(cc1CC)CCC(CCN1CCCC1)=C2 [Ex. 46, 1-[2-(6,7-diethyl-3,4-dihydro-2-naphthalenyl)ethyl]pyrrolidine]",,,ED50: 12.4 mg/kg
C1=C(CCN2CCCC2)CCc2cc3c(cc21)OCO3 [Ex. 49],46,suppressed the amplitude of contraction,
"Fc1cc(F)c2c(c1)C=C(CCN1CCCC1)CC2 [Ex. 52, 1-[2-(5,7-difluoro-3,4-dihydro-2-naphthalenyl)ethyl]-pyrrolidine]",52,,
Cc1cc2c(cc1C)CCC(CCN1CCC(O)C1)=C2 (centres unmarked) [Ex. 66],34,,
"Fc1cc2c(cc1F)CCC(CCN1CCCC1)=C2 [Ex. 36, 1-[2-(6,7-difluoro-3,4-dihydro-2-naphthalenyl)ethyl]pyrrolidine]",,suppressed the amplitude of contraction,ED50: 12.9 mg/kg; Potency on frequency of rhythmic bladder contractions relative to inaperisone hydrochloride (Compound A): ~3 times more potent
COc1ccc2c(c1)C=C(CCN1CCCCC1)CC2 [Ex. 34],,,inhibition in vivo at 30 mg/kg: 65%
Fc1ccc2c(c1)CCC(CCN1CCCCC1)=C2 [Ex. 11],,,inhibition in vivo at 30 mg/kg: 60%
Fc1cccc2c1CCC(CCN1CCC(F)C1)=C2 (centres unmarked) [Ex. 53],35,,
Cc1ccc2c(c1)C=C(CCN1CCCC1)CC2 [Ex. 20],,suppressed the amplitude of contraction,inhibition in vivo at 30 mg/kg: 67%
C1=C(CCCN2CCCCC2)CCc2ccccc21 [Ex. 3],38,suppressed the amplitude of contraction,
Fc1cccc2c1CCC(CCN1CCCCCC1)=C2 [Ex. 9],47,,
